Reference: patent US20100255054A1, “PHARMACEUTICAL COMPOSITION FOR TREATMENT AND PREVENTION OF RESTENOSIS” (priority 2006, published 2010)

Legend:
NQO1 = test: RT-PCR of NQO1 expression in vascular smooth muscle cells; assay type: cell-based, rat; details: 0.5 μM, compared with the control group, FIG. 2
Protocol: A study was conducted to investigate effects of Compound 1 on the expression of NQ01 as in the following. Primary cultures of vascular smooth muscle cells were kept in the resting state and then treated with 0.5 μM of Compound 1. After reacting them for a predetermined period of time, RNA was extracted from the cells using trizol. Thereafter, DNA was amplified using NQO1 primer and then subjected to electrophoresis to confirm the expression level of NQO1.

SD rats = test: Intimal hyperplasia after balloon angioplasty (H&E staining); assay type: in vivo, rat; details: 100 mg/kg in diet
Protocol: SD rats were used for performing balloon angioplasty. Animals were housed in a breeding room maintained at a constant temperature of 22±2° C. and a 12-h light/dark (UD) cycle. The animals were divided into two groups, i.e., a control group with administration of general diet and an experiment group with administration of 100 mg/kg of Compound 1, having 4 animals in each group. The 4 animals in each group were raised in separate cages for each animal for 4 weeks, during which experiments were carried out. The animals were raised for 2 weeks before performing balloon angioplasty and 2 weeks after performing balloon angioplasty while continuing the dietary intake of the general diet and Compound 1 diet. Thereafter, their aortas were isolated to confirm hyoerplasia by means of H&E (hematoxylin and eosin) staining.
14 days after performing balloon angioplasty, the carotid artery was extracted from a rat. After staining the carotid artery by H&E staining, vessel intimal hyperplasia was observed. The results are presented in FIG. 6. a is a control group, b is a vessel intima after performing balloon angioplasty in the general dietary group, c is a vessel intima after performing balloon angioplasty in the 100 mg/kg of Compound 1 administration group, and d is a control group in the 100 mg/kg of Compound 1 administration group, without performing balloon angioplasty.

[1] = system: cyclin dependent kinase (CDK); test: Western blot of CDK in vascular smooth muscle cells; assay type: cell-based, rat; details: 0.5 μM, FIG. 4B
Protocol: (§1) For vascular smooth muscle cell cultivation, vascular smooth muscle cells were isolated from rat aorta and they were primarily cultured. The vascular smooth muscle cells were cultured and grown in a culture solution containing 20% fetal bovine serum (FBS) at 37° C. under 5% CO2. The cells obtained in this process were transferred to a new culture plate for experiments. The cells used in the experiments were initial cells which had been subcultured 4 to 7 times. In order to activate NQO1, the vascular smooth muscle cells, when the cell mass reached 80 to 90%, were cultured in a medium containing 0.5% fetal bovine serum for 24 hours to keep the cells in the resting state. Such cells were treated with the compound of Example 1 (hereinafter, referred to as Compound 1).
(§2) The vascular smooth muscle cells collected after reacting with Compound 1 were lysed in RIPA buffer (50 mM Tris-HCl, 150 mM NaCl, 5 mM EDTA, 1% NP-40, 1 mM PMSF, 1 mM […], and 1 mg/ml protease inhibitor) to isolate whole proteins. The isolated proteins of each sample were quantified. 25 μg of the proteins were mixed with a sample buffer and boiled for 5 minutes. The boiled proteins were cooled and subjected to electrophoresis on a sodium dodecyl sulfate polyacrylamide gel, thereby separating the proteins by their sizes. […]

p53 = test: Western blot of p53 expression in vascular smooth muscle cells; assay type: cell-based, rat; details: 0.5 μM, FIG. 4A
Protocol: as §1, §2

p21 = test: Western blot of p21 expression in vascular smooth muscle cells; assay type: cell-based, rat; details: 0.5 μM, FIG. 4A
Protocol: as §1, §2

[2] = system: vascular smooth muscle cells; test: Cell cycle analysis by FACS (PI staining); assay type: cell-based, rat; details: 0.5 μM Compound 1 + PDGF and insulin, 48 hours (PDGF and insulin only: 57%), FIG. 5C
Protocol: as §1
FACS was used for cell cycle analysis. The vascular smooth muscle cells incubated in a medium containing 0.5% fetal bovine serum for 24 hours were pretreated with Compound 1 for 2 hours. The cells were treated with PDGF and insulin to induce cell proliferation and reacted for 48 hours. Thereafter, the cells were collected and passed through fixation process, followed by nuclear staining with propidium iodide (PI). Then, the cell cycle was analyzed using FACS.
Primary cultures of vascular smooth muscle cells were treated with 0.5 μM of Compound 1, followed by reacting with PDGF and insulin for 48 hours. […]

[3] = system: Acetyl-CoA carboxylase (ACC); test: Western blot of phosphorylated ACC in vascular smooth muscle cells; assay type: cell-based, rat; details: 0.5 μM, compared with the control group, FIG. 3
Protocol: as §1
as §2, with “minutes.” for “minutes. The boiled proteins were cooled and subjected to electrophoresis on a sodium dodecyl sulfate polyacrylamide gel, thereby separating the proteins by their sizes.”
Primary cultures of vascular smooth muscle cells were kept in the resting state and then treated with 0.5 μM of Compound 1. […] Quantification was carried out using antibodies specific for phosphorylated AMPK and Acetyl-CoA carboxylase (ACC), and for β-actin. […]

cyclin D = test: Western blot of cyclin D expression in vascular smooth muscle cells; assay type: cell-based, rat; details: 0.5 μM, compared with the control group, FIG. 4B
Protocol: as §1, §2

AMPK = test: Western blot of phosphorylated AMPK in vascular smooth muscle cells; assay type: cell-based, rat; details: 0.5 μM
Protocol: as §1
The vascular smooth muscle cells collected after reacting with Compound 1 were lysed in RIPA buffer (50 mM Tris-HCl, 150 mM NaCl, 5 mM EDTA, 1% NP-40, 1 mM PMSF, 1 mM […], and 1 mg/ml protease inhibitor) to isolate whole proteins. The isolated proteins of each sample were quantified. 25 μg of the proteins were mixed with a sample buffer and boiled for 5 minutes. The boiled proteins were cooled and subjected to electrophoresis on a sodium dodecyl sulfate polyacrylamide gel, thereby separating the proteins by their sizes. These proteins were again transferred to PVDF membrane and immunoreacted with antibodies against pAMPK, pACC, p53, p21, CDK and pRb to confirm the protein expression. In addition, in order to verify whether an equal amount of protein was used, the proteins were reacted with anti-β-actin.
Primary cultures of vascular smooth muscle cells were kept in the resting state and then treated with 0.5 μM of Compound 1. After reacting them for a predetermined period of time, the cells were collected to perform western blot. Quantification was carried out using antibodies specific for phosphorylated AMPK and Acetyl-CoA carboxylase (ACC), and for β-actin. The results were confirmed through three or more repeating experiments.

cyclin E = test: Western blot of cyclin E expression in vascular smooth muscle cells; assay type: cell-based, rat; details: 0.5 μM, compared with the control group, FIG. 4B
Protocol: as §1, §2

cyclin B = test: Western blot of cyclin B expression in vascular smooth muscle cells; assay type: cell-based, rat; details: 0.5 μM, compared with the control group, FIG. 4B
Protocol: as §1, §2

rats = test: Lipogenesis in vessels (Oil Red O staining of aortic valve and abdominal aorta); assay type: in vivo, rat
Text: The animals were killed to isolate their hearts and abdominal aortas, and they were fixed in 4% formalin, respectively. The fixed heart tissue was immersed in an isotonic sucrose solution, and then stored in a freezer by embedding in an OCT compound. Meanwhile, the fixed abdominal aorta was incised lengthwise and prepared such that the internal vessel was exposed. The frozen heart tissue was sectioned into a thickness of 20 μm and attached onto a coating slide, while the abdominal aorta was immersed in an Oil Red O solution to perform Oil Red O staining, and they were observed.
Rats administered with 25 mg/kg and 50 mg/kg of Compound 1, respectively, for 4 weeks had been killed, and their hearts and abdominal aortas were extracted to prepare frozen sections. The prepared sections were stained with Oil Red O, and a degree of lipid accumulation on the inner vessel wall and aortic valve was compared/observed.
A (upper part of FIG. 7) is an aortic valve and B (bottom part of FIG. 7) is an abdominal aorta. The experiments were repeated three times to confirm the results.

[4] = system: vascular smooth muscle cells; test: Vascular smooth muscle cell proliferation (PDGF-induced, WST cell counting kit); assay type: cell-based, rat
Protocol: as §1, with “Such cells were treated with the compound of Example 1 (hereinafter, referred to as Compound 1).” left out
Primary cultures of vascular smooth muscle cells were seeded onto 96-well plates, cultured to reach cell mass of 70%, and transferred and again cultured in a medium containing 0.5% fetal bovine serum for 24 hours. […] After further reacting for 4 hours, absorbencies were measured at 450 nm using an ELISA reader to examine the cell proliferation rate.
In order to determine the effects of Compound 1 on vascular smooth muscle cell proliferation, the cells cultured in a 96-well plate were kept in the resting state, followed by pre-treating them with Compound 1 by varying the concentration, and by reacting them with PDGF for 48 hours. The number of living cells was counted using a WST cell counting kit. […]

SMILES: CC1(C)CCC2=C(O1)c1ccccc1C(=O)C2=O [Compound 1, β-lapachone]
- expression level of NQO1 (NQO1): significantly higher
- intima/media ratio (SD rats; 14 days after balloon angioplasty (general dietary group: 2.5)): 1
- intimal hyperplasia in the vessel (SD rats; 14 days after balloon angioplasty, FIG. 6 c): low rate of intimal hyperplasia
- CDK activation [1]: activated through phosphorylation
- expression level of p53 (p53): did not increase largely
- expression of p21 (p21): increased in a great amount
- G1 phase (percentage of cells) [2]: 62%
- ACC phosphorylation [3]: decreased
- expression level of cyclin D (cyclin D): significantly low
- time after treatment at which phosphorylated AMPK could be observed (AMPK): 1 h
- time for which phosphorylated AMPK lasted (AMPK): 6 h
- AMPK phosphorylation (AMPK; compared with the control group, FIG. 3): increased
- expression level of cyclin E (cyclin E): significantly low
- expression level of cyclin B (cyclin B): significantly low
- lipogenesis in aortic valve and abdominal aorta (rats; 25 mg/kg and 50 mg/kg for 4 weeks, Oil Red O, FIG. 7): inhibited
- blood flow level in the heart and abdominal aorta (rats; about 50 mg/kg for 4 weeks): approximately the same as that of the normal rats
- concentration dependence of the reduction in the number of vascular smooth muscle cells ([4]; Compound 1 pre-treatment at varying concentration, PDGF 48 hours): concentration-dependent
- number of vascular smooth muscle cells (living cells) ([4]; PDGF + Compound 1 compared with PDGF only, 48 hours, FIG. 1): significantly low
